Results reported in US10711242B2, “Apparatus and methods for controlling cellular development” (The Board of Trustees of the Leland Stanford Junior …, priority 2008, dated 2020).

Experiments:
ChR2-ESC-derived neurons = experiment: Patch-clamp recording of excitatory postsynaptic currents in ChR2-ESC-derived neurons; assay type: cell-based, mouse; settings: differentiation day 28
From the text: (§1) We first verified that ChR2-ESCs were capable of neural lineage differentiation, using a retinoic acid-based neural differentiation protocol (FIG. 8c). At differentiation day 8, 40±10% of the cells expressed the neural lineage marker nestin. By day 14, a dense network of β-3-tubulin-positive ESC-derived immature neurons could be detected, followed by expression of the mature neuronal cytoskeletal protein MAP2 and the vesicular glutamate transporter II (vGlutll).
Neuronal differentiation was performed as previously described, with modifications. ESCs were plated on matrigel-coated dishes in embryoid body stage in complete ESC medium (see above). […]
For acute slice electrophysiological experiments, 1 week post cell transplantation, 250 μm cortical slices were prepared in ice-cold cutting buffer (64 mM NaCl, 25 mM NaHCO3, 10 mM glucose, 120 mM sucrose, 2.5 mM KCl, 1.25 mM NaH2PO4, 0.5 mM CaCl2 and 7 mM MgCl2, equilibrated with 95% O2/5% CO2) using a vibratome (VT 1000 S; Leica). […] Images were recorded with a CCD camera (Retiga Exi, Qimaging) by Qimaging software. […] Membrane currents were measured with the patch-clamp technique in whole-cell mode using Axon Multiclamp 700B (Axon Instruments) amplifiers. […] Through a 20× objective lens, power density of the blue light was 8-12 mW/mm^2, measured by power meter (Newport). […]

ChR2-ESCs = experiment: Retinoic acid-based neural differentiation of ChR2-ESCs, nestin expression; assay type: cell-based, mouse; settings: differentiation day 8; retinoic acid-based neural differentiation protocol
From the text: as §1
Neuronal differentiation was performed as previously described, with modifications. ESCs were plated on matrigel-coated dishes in embryoid body stage in complete ESC medium (see above). 24 hours later, medium was changed to ESC medium lacking LIF and including 5 μM retinoic acid, and changed every second day for 5 days. As a second differentiation step, cells were incubated with neural expansion medium for 7 days consisting of N2 supplement, SHH (50 ng/ml), FGF-8b (100 ng/ml), bFGF (10 ng/ml) and ascorbic acid (200 μM, Sigma) in DMEM/F12 and changed every two days. Thereafter cells were cultured in N2 and ascorbic acid in DMEM/F12.
Cells were fixed with 4% paraformaldehyde in PBS for 30 min at room temperature. Fixation was stopped by washing cells three times with 0.1M glycine/PBS. Cells were permeabilized and blocked (4% BSA/0.4% saponin/PBS) for 30 min and incubated in primary antibody solution at 4° C. overnight. […]

Compound | block of excitatory postsynaptic currents (ChR2-ESC-derived neurons) | cells expressing the neural lineage marker nestin (ChR2-ESCs)
N#Cc1cc2[nH]c(=O)c(=O)[nH]c2cc1[N+](=O)[O-] [CNQX] | blocked | 
NC(CCCP(=O)(O)O)C(=O)O [D-AP5] | blocked | 
CC1=C(/C=C/C(C)=C/C=C/C(C)=C/C(=O)O)C(C)(C)CCC1 [RA, retinoic acid] |  | 40±10%
